The source of these data is PMC6151961 (Journal of Enzyme Inhibition and Medicinal Chemistry, 2018).

For orientation: pKi means the Ki on a negative log10 scale, so that one unit is a factor of ten.

pKi: −log10 of the molar value. Read-outs that look alike come from different tables or passages of the source.

A short description of data set [1]: RP-LC chromatographic lipophilicity (logkw). Type of data set: physicochemical. As to conditions: chromatographic lipophilicity from gradient RP-LC, Luna RP-C18, water/acetonitrile with 0.1% formic acid, 30 °C.
Data set [2] addresses T1, CA IX (Homo sapiens, UniProt Q16790). As to the kind of experiment: Stopped-flow CA-catalysed CO2 hydration inhibition assay. Type of data set: biochemical.
In data set [3] the target is T1, CA IX. As to the kind of experiment: biochemical. The conditions noted are these: for Ki: read-out: pKi (exp.) (converted).
Data set [4] has as its target T1, CA IX. As to conditions: cited from earlier work.
Setting [5] is: observed Ki of library compounds (IDs A…, B…), ref ChEMBL and BindingDB, read-out: Ki.

In data set [1], `Cc1cc(S(=O)(=O)NC(=N)Nc2ccc(S(N)(=O)=O)cc2)c(SCc2cc(=O)[nH]c3ccccc23)cc1Cl` [C115] yielded a logkw of 3.830.

Compound `Cc1cc(S(=O)(=O)NC(=N)Nc2nnc(S(N)(=O)=O)s2)c(SCc2ccccc2)cc1Cl` [C99] came in with a logkw in data set [1] of 4.070. On the same count and under the same terms, for `Cc1cc(S(=O)(=O)NC(=N)Nc2ccc(S(N)(=O)=O)cc2)c(SCc2ccc(C(F)(F)F)cc2)cc1Cl` [C105] the value was 4.550; for `Cc1cc(S(=O)(=O)NC(=N)Nc2cccc(S(N)(=O)=O)c2)c(SCc2cccc(C(F)(F)F)c2)cc1Cl` [C101], 4.470; for `Cc1cc(S(=O)(=O)NC(=N)NCc2ccc(S(N)(=O)=O)cc2)c(SCc2ccc(C(F)(F)F)cc2)cc1Cl` [C109], 4.590. The same measure, in the same setting: then `Cc1cc(S(=O)(=O)NC(=N)NNc2ccc(S(N)(=O)=O)cc2)c(SCc2cc3c(cc2Cl)OCO3)cc1Cl` [C122], with 3.690. With `Cc1cc(S(=O)(=O)NC(=N)Nc2ccccc2S(N)(=O)=O)c(SCc2cc(=O)[nH]c3ccccc23)cc1Cl` [C117], the logkw in data set [1] is on record as 3.870. `Cc1cc(S(=O)(=O)NC(=N)Nc2ccc(S(N)(=O)=O)cc2)c(SCc2cccc3ccccc23)cc1Cl` [C111] registered a logkw in data set [1] of 3.900. On to `Cc1cc(S(=O)(=O)NC(=N)NNc2ccc(S(N)(=O)=O)cc2)c(SCc2ccccc2)cc1Cl` [C97], for which, in data set [1], the logkw is recorded as 4.090. For `Cc1cc(S(=O)(=O)NC(=N)NCc2ccc(S(N)(=O)=O)cc2)c(SCc2ccccc2)cc1Cl` [C98], the logkw in data set [1] is 3.920. The “logKi(CA IX)” value in data set [2] (logarithm of Ki (Ki in nM), mean of three determinations) was found to be 1.130. For the same compound, the pKi in data set [2] (sulphonamides with IDs C..., read-out: Ki) was 7.64. Further, the Ki in data set [2] (sulphonamides with IDs C..., read-out: pKi (exp.) (converted)) is 0.0231 µM. For `Cc1cc(S(=O)(=O)NC(=N)Nc2cccc(S(N)(=O)=O)c2)c(SCc2cc3c(cc2Cl)OCO3)cc1Cl` [C121], in data set [1], the logkw is given as 3.990. Same read-out and setting: for `Cc1cc(S(=O)(=O)NC(=N)Nc2ccccc2S(N)(=O)=O)c(SCc2ccc(C(F)(F)F)cc2)cc1Cl` [C107] the value was 4.430; for `Cc1cc(S(=O)(=O)NC(=N)NNc2ccc(S(N)(=O)=O)cc2)c(SCc2cccc3ccccc23)cc1Cl` [C113], 3.830. The same measure, in the same setting: then `Cc1cc(S(=O)(=O)NC(=N)NCc2ccc(S(N)(=O)=O)cc2)c(SCc2cc3c(cc2Cl)OCO3)cc1Cl` [C123], with 3.850; and `Cc1cc(S(=O)(=O)NC(=N)Nc2cccc(S(N)(=O)=O)c2)c(SCc2ccccc2)cc1Cl` [C95], with 3.930. Still for that read-out and setting: then `Cc1cc(S(=O)(=O)NC(=N)Nc2cccc(S(N)(=O)=O)c2)c(SCc2cc(=O)[nH]c3ccccc23)cc1Cl` [C116], with 3.800; and `Cc1cc(S(=O)(=O)NC(=N)NNc2ccc(S(N)(=O)=O)cc2)c(SCc2ccc(C(F)(F)F)cc2)cc1Cl` [C108], with 4.460; and `Cc1cc(S(=O)(=O)NC(=N)Nc2nnc(S(N)(=O)=O)s2)c(SCc2cccc(C(F)(F)F)c2)cc1Cl` [C104], with 4.600.

Turning to `Cc1cc(S(=O)(=O)NC(=N)Nc2ccccc2S(N)(=O)=O)c(SCc2cccc(C(F)(F)F)c2)cc1Cl` [C102], the logkw in data set [1] is listed as 4.430. Same read-out and setting: for `Cc1cc(S(=O)(=O)NC(=N)Nc2ccc(S(N)(=O)=O)cc2)c(SCc2cccc(C(F)(F)F)c2)cc1Cl` [C100] the value was 4.530; for `Cc1cc(S(=O)(=O)NC(=N)Nc2cccc(S(N)(=O)=O)c2)c(SCc2ccc(C(F)(F)F)cc2)cc1Cl` [C106], 4.540. `CC(=O)OC[C@@H]1O[C@@H](NS(N)(=O)=O)C[C@@H](OC(C)=O)[C@@H]1OC(C)=O` [B0263]: the Ki in data set [3] is 16 nM. Further, the pKi in data set [4] (read-out: Ki) is 7.80. Regarding `NS(=O)(=O)c1ccc(C(=O)NCc2cn([C@H]3O[C@@H](CO)[C@H](O)[C@@H](O)[C@@H]3O)nn2)cc1` [B0735], the Ki in data set [3] was 442 nM. Further, the pKi in data set [4] (read-out: Ki) is 6.35. With `C[C@]12CC[C@@H](OS(N)(=O)=O)CC1=C[C@@H](O)[C@@H]1[C@@H]2CC[C@]2(C)C(=O)CC[C@@H]12` [A1368], the pKi in data set [3] and in data set [4] was 7.19 each time. As for `Cc1ccc2c(c1)/C(=N/c1ccc(NC(=O)Nc3ccc(S(N)(=O)=O)cc3)cc1)C(=O)N2` [B0270], the Ki in data set [3] (experimental value used for the QSPR model, library compounds (IDs A…, B…), equals log10 of Ki in nM) was 17 nM. Also, in data set [4] (setting [5]), the pKi was 7.77.

`Cc1cc(S(=O)(=O)NC(=N)Nc2ccccc2S(N)(=O)=O)c(SCc2ccccc2)cc1Cl` [C96] yielded a logkw in data set [1] of 4.090. In turn, `Cc1cc(S(=O)(=O)NC(=N)Nc2ccc(S(N)(=O)=O)cc2)c(SCc2cc3c(cc2Cl)OCO3)cc1Cl` [C120] came in with a logkw in data set [1] of 4.070.

`Cc1cc(S(=O)(=O)NC(=N)Nc2cccc(S(N)(=O)=O)c2)c(SCc2cccc3ccccc23)cc1Cl` [C112]: the logkw in data set [1] worked out at 3.940. `COC(=O)[C@H]1C[C@H](OS(N)(=O)=O)CN1S(=O)(=O)[C@H]1O[C@H](COC(C)=O)[C@@H](OC(C)=O)[C@H](OC(C)=O)[C@H]1OC(C)=O` [B0015]: in data set [3] (library compounds with IDs A… and B…, from observed Ki (nM)), the Ki was 2 nM. Also, the pKi in data set [4] (library compounds with IDs A… and B…, observed Ki, ref ChEMBL, BindingDB, read-out: Ki) was 8.70. `Cc1cc(S(=O)(=O)NC(=N)NNc2ccc(S(N)(=O)=O)cc2)c(SCc2cc(=O)[nH]c3ccccc23)cc1Cl` [C118] returned a logkw in data set [1] of 3.770.

For the compound `CCOc1ccc(S(=O)(=O)N2CCOCC2)cc1-c1nnc2c(n1)c(C)nn2C` [B0310], the Ki in data set [3] (experimental value from the library Ki (IDs A…, B…), values equal log10 of Ki in nM) was 24 nM. Further, the pKi in data set [4] (setting [5]) was 7.62.

In turn, `Cc1cc(S(=O)(=O)NC(=N)NCc2ccc(S(N)(=O)=O)cc2)c(SCc2cccc3ccccc23)cc1Cl` [C114] displayed a logkw in data set [1] of 3.990. Same read-out and setting: then `Cc1cc(S(=O)(=O)NC(=N)Nc2ccc(S(N)(=O)=O)cc2)c(SCc2ccccc2)cc1Cl` [C94], with 4.050.
